Results published in publication PMC4407688 (Drug metabolism and drug interactions, 2014).
Like-named read-outs stand apart in the source and are kept apart here.

Legend:
OATP-1B3 = biological target: T1, OATP-1B3 (Homo sapiens, UniProt Q9NPD5); test: Inhibition of [3H]CCK-8 cellular accumulation in OATP-1B3 transfected CHO cells; format: cell-based; conditions: for Inhibition of cellular accumulation of [3H]CCK-8 (in words): 25 and 50 μM, OATP-1B3 transfected cells; for Inhibition in net uptake rate of [3H]CCK-8 in OATP-1B3 cells (in words): increasing concentrations 0.1-100 μM
T1 sequence (Q9NPD5 1-702): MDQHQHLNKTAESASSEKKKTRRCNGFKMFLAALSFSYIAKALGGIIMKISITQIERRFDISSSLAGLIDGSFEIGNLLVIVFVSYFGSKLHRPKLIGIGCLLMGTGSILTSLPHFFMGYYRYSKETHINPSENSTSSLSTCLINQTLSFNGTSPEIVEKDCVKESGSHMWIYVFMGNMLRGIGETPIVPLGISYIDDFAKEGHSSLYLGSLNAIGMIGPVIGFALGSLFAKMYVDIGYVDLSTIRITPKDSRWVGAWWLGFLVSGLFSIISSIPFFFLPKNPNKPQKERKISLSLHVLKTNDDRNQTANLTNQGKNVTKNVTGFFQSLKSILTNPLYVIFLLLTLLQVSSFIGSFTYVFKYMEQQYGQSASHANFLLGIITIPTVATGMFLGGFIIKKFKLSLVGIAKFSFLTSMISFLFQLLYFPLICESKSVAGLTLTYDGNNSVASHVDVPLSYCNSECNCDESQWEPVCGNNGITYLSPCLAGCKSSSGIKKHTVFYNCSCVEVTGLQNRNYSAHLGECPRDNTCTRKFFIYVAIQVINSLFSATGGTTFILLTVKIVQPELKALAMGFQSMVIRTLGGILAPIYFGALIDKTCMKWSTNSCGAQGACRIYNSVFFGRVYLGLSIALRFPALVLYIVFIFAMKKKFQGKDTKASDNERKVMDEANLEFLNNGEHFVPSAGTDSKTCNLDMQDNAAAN

OATP-1B1 [1] = biological target: T2, OATP-1B1 (Homo sapiens, UniProt Q9Y6L6); conditions: for Inhibition of cellular accumulation of [3H]ES (in words) / Diminished uptake of [3H]ES: 25 and 50 μM; for Diminished uptake of [3H]ES: p < 0.05
T2 sequence (Q9Y6L6 1-691): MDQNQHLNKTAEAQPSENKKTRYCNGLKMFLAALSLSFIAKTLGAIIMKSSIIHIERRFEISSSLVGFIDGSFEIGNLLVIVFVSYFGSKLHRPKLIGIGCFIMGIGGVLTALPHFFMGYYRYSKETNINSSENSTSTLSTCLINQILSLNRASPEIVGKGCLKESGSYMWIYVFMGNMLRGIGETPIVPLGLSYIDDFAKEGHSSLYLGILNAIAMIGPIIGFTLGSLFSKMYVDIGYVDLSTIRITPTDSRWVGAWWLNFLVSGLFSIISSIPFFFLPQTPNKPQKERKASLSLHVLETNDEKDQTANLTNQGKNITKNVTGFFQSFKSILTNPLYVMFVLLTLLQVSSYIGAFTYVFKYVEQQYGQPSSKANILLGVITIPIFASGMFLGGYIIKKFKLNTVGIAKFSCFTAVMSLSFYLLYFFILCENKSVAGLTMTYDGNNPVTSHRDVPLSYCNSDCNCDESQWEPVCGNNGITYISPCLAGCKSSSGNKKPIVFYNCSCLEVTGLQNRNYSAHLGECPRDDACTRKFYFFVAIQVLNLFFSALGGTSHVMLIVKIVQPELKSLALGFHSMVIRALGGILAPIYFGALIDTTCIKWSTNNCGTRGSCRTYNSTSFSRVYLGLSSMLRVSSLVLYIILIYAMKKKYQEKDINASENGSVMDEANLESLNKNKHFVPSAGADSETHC

[2] = test system: OATP-1B1 transfected CHO cells
[3] = test system: OATP-1B3 transfected CHO cells; format: cell-based, Chinese hamster
[4] = coadministration together with CsA; ref [16], [34], [35]; cited from earlier work
OATP-1B1 [5] = conditions: 10 μM, Flp-In T-Rex293 cells expressing OATP-1B1; ref Hu et al. [24]; cited from earlier work
[6] = coadministration of pazopanib; ref Tan et al. [41]; cited from earlier work
[7] = 100 μM, 24 h, OATP-1B1 transfected cells, relative to positive control Triton X
[8] = 100 μM, 24 h, OATP-1B3 transfected cells, relative to positive control Triton X

Row | Compound | Inhibition of cellular accumulation of [3H]CCK-8 (in words) (OATP-1B3) | Inhibition in net uptake rate of [3H]CCK-8 in OATP-1B3 cells (in words) (OATP-1B3) | Inhibition of cellular accumulation of [3H]ES (in words) (OATP-1B1 [1]; OATP-1B1 transfected cells) | Cytotoxic effect [2, 7] | Cytotoxic effect [3, 8] | Inhibition of OATP-1B1 (in words) (OATP-1B1 [5]) | also measured
1 | CC[C@H](C)C(=O)O[C@H]1C[C@H](O)C=C2C=C[C@H](C)[C@H](CC[C@@H](O)C[C@@H](O)CC(=O)O)[C@H]21 [pravastatin] |  |  |  |  |  |  | Increased AUC of statin [4]: 9.93 fold
2 | CO[C@H]1/C=C/O[C@@]2(C)Oc3c(C)c(O)c4c(O)c(c(/C=N/N5CCN(C)CC5)c(O)c4c3C2=O)NC(=O)/C(C)=C\C=C\[C@H](C)[C@H](O)[C@@H](C)[C@@H](O)[C@@H](C)[C@H](OC(C)=O)[C@@H]1C [Rifampicin] |  |  |  |  |  |  | IC50 (OATP-1B3): 3.67 ± 1.2 µM; IC50 (OATP-1B1 [1]): 10.5 ± 1.15 µM; Reduced uptake of [3H]ES (OATP-1B1 [1]; 50 μM, OATP-1B1 transfected cells): 70%
3 | Cc1ccc(Nc2nccc(N(C)c3ccc4c(C)n(C)nc4c3)n2)cc1S(N)(=O)=O [Pazopanib] | did not show any significant effect | no significant inhibition | significant inhibition |  |  | inhibitory potency | IC50 (OATP-1B1 [1]): 3.89 ± 1.21 µM; Diminished uptake of [3H]ES (OATP-1B1 [1]; OATP-1B1 transfected cells): ~90%; Cytotoxic effect [2]: No cytotoxic effects; Cytotoxic effect [3]: No cytotoxic effects
4 | CC(=O)O[C@H]1C(=O)[C@@]2(C)[C@H]([C@H](OC(=O)c3ccccc3)[C@]3(O)C[C@H](OC(=O)[C@H](O)[C@@H](NC(=O)c4ccccc4)c4ccccc4)C(C)=C1C3(C)C)[C@]1(OC(C)=O)CO[C@@H]1C[C@@H]2O [paclitaxel] |  |  |  |  |  |  | Lower paclitaxel clearance [6]: 14%
5 | CC(C)c1nc(N(C)S(C)(=O)=O)nc(-c2ccc(F)cc2)c1/C=C/[C@@H](O)C[C@@H](O)CC(=O)O [rosuvastatin] |  |  |  |  |  |  | Increased AUC of statin [4]: 7.08 fold
6 | Cc1cn(-c2cc(NC(=O)c3ccc(C)c(Nc4nccc(-c5cccnc5)n4)c3)cc(C(F)(F)F)c2)cn1 [Nilotinib, nilotinib] | did not show any significant effect | no significant inhibition | significant inhibition | No cytotoxic effects | No cytotoxic effects | inhibitory potency | Diminished uptake of [3H]ES (OATP-1B1 [1]; OATP-1B1 transfected cells): ~90%

More lines, main results first:

Row | Inhibition of cellular accumulation of [3H]CCK-8 (in words) (OATP-1B3) | Inhibition in net uptake rate of [3H]CCK-8 in OATP-1B3 cells (in words) (OATP-1B3) | Compound | Inhibition of cellular accumulation of [3H]ES (in words) (OATP-1B1 [1]; OATP-1B1 transfected cells) | Cytotoxic effect [2, 7] | Cytotoxic effect [3, 8] | Inhibition of OATP-1B1 (in words) (OATP-1B1 [5]) | also measured
7 | did not show any significant effect | no significant inhibition | C=CC(=O)Nc1cc2c(Nc3ccc(F)c(Cl)c3)ncnc2cc1OCCCN1CCOCC1 [Canertinib, canertinib] | did not show any significant inhibitory activity | No cytotoxic effects | No cytotoxic effects |  | 
8 | did not show any significant effect | no significant inhibition | C#Cc1cccc(Nc2ncnc3cc(OCCOC)c(OCCOC)cc23)c1 [Erlotinib, erlotinib] | did not show any significant inhibitory activity | No cytotoxic effects | No cytotoxic effects | inhibitory activity | 
9 | significant inhibition |  | COc1cc2c(Nc3ccc(Br)cc3F)ncnc2cc1OCC1CCN(C)CC1 [Vandetanib, vandetanib] | did not show any significant inhibitory activity |  |  | inhibitory activity | IC50 (OATP-1B3): 18.1 ± 1.21 µM; Cytotoxic effect [2]: No cytotoxic effects; Cytotoxic effect [3]: No cytotoxic effects
